# Structures can show the parent of a compound that is named as a salt. Active and inactive are the calls of the source.
# Key:
# [1] = target: Mu-type opioid receptor (Homo sapiens, UniProt P35372); assay: (§1) Counterscreen for agonists of heterodimerization of the mu 1 (OPRM1) and delta 1 (OPRD1) opioid receptors: Luminescence-based cell-based high throughput dose response assay to identify agonists of OPRM1 homodimerization.; type: functional
# [2] = target: 5-hydroxytryptamine receptor 5A (Homo sapiens, UniProt P47898); assay: Counterscreen for agonists of OPRM1-OPRD1 heterodimerization: luminescence-based cell-based high throughput dose response assay to identify agonists of 5-hydroxytryptamine (serotonin) 5A receptor (HTR5A). [Related pubchem assays (depositor defined):AID504326, AID504355, AID504692, AID504904, AID504905]; type: functional
# 5-hydroxytryptamine receptor 5A, sequence (P47898 whole entry): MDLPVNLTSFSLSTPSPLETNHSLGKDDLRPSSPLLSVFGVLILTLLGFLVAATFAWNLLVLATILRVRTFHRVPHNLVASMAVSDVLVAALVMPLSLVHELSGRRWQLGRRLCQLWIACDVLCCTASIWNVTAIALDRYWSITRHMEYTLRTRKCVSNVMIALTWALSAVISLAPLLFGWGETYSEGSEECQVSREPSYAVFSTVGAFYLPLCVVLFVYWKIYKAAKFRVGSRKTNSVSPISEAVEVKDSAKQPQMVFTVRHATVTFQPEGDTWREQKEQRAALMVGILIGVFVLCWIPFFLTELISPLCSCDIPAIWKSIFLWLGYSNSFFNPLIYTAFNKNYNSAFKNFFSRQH
# [3] = target: Delta-type opioid receptor (Homo sapiens, UniProt P41143); assay: as §1, with “of OPRD1” for “of OPRM1”, “homodimerization. [Related pubchem assays (depositor defined):AID504326, AID504355, AID504692, AID504904, AID504905]” for “homodimerization.”; type: functional
# Delta-type opioid receptor, sequence (P41143 whole entry, the tested form may be a part): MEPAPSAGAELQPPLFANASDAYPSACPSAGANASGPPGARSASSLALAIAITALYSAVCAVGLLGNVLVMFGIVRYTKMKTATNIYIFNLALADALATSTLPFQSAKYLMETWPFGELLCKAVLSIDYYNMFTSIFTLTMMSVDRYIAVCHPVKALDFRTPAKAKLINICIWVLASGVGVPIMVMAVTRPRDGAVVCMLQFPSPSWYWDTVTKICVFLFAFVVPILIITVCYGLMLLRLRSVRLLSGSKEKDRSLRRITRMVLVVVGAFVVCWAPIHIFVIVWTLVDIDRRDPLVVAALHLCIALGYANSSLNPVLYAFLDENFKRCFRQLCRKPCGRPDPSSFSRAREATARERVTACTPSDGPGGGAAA
# [4] = target: T1, Carboxy-terminal domain RNA polymerase II polypeptide A small phosphatase 1 (Homo sapiens, UniProt Q9GZU7); assay: inhibitors of CTDSP1, concentration-response testing, biochemical assay, absorbance-based, actives from ultra-high-throughput screening (AID 540297); type: functional
# T1 sequence (Q9GZU7 whole entry): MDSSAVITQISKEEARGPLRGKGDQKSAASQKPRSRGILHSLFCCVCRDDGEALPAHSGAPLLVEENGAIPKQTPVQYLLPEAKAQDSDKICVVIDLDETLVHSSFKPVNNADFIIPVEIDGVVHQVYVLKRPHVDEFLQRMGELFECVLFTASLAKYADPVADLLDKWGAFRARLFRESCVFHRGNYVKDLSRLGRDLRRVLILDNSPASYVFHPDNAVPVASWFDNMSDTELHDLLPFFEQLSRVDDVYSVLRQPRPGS
# [5] = target: T2, Serine/threonine-protein phosphatase (Candida dubliniensis (strain CD36 / CBS 7987 / NCPF 3949 / NRRLY-17841) (Yeast), UniProt B9W6M3); assay: calcineurin pathway inhibitors in yeast reporter, dose response, S. cerevisiae, CDRE-lacZ, luminescence, secondary (AID 2388); type: functional, cell-based;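 note: yeast reporter cells carrying a calcineurin-responsive lacZ construct stimulated with calcium chloride; luminescent beta-galactosidase reporter signal in whole cells rather than isolated phosphatase activity; potency for inhibition where a drop in reporter signal means calcineurin blockade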
# T2 sequence (B9W6M3 whole entry): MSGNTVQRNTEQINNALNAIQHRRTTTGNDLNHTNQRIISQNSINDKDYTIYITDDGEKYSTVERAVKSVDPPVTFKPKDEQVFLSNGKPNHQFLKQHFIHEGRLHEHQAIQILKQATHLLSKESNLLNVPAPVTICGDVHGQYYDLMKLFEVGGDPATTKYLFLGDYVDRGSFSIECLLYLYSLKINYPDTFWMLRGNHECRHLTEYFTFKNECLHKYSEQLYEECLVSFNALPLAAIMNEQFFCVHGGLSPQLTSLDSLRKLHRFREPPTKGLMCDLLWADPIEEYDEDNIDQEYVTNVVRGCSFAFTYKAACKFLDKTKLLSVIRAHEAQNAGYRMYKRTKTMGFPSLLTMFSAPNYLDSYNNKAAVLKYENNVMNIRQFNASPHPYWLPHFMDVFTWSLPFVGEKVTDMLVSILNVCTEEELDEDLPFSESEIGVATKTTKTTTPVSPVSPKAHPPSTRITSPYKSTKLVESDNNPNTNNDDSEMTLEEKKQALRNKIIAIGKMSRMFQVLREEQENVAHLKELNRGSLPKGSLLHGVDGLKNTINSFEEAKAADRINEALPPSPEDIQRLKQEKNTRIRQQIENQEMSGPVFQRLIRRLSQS
# [6] = C. albicans growth with fluconazole, confirmation, fluorescence, retest (AID 2467); type: functional, cell-based
# [7] = NIH-3T3 fibroblast cytotoxicity, dose response, cytotoxicity control, cell-based, fluorescence, Alamar Blue, secondary assay (AID 2327); type: functional;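 note: NIH-3T3 mouse fibroblasts cultured with fluconazole at 8 µg/mL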
# [8] = target: ATP-dependent molecular chaperone HSP82 (Candida albicans (strain WO-1) (Yeast), UniProt C4YTQ8); assay: loss of DOC-induced GRE-beta-galactosidase reporter signal, dose response, Hsp90 inhibitor project, S. cerevisiae, luminescence (AID 2400); type: functional, cell-based;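 note: beta-galactosidase luminescence from glucocorticoid response element reporter as proxy for Hsp90 function; inhibitor potency where signal loss means Hsp90 inhibition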
# ATP-dependent molecular chaperone HSP82, sequence (C4YTQ8 whole entry): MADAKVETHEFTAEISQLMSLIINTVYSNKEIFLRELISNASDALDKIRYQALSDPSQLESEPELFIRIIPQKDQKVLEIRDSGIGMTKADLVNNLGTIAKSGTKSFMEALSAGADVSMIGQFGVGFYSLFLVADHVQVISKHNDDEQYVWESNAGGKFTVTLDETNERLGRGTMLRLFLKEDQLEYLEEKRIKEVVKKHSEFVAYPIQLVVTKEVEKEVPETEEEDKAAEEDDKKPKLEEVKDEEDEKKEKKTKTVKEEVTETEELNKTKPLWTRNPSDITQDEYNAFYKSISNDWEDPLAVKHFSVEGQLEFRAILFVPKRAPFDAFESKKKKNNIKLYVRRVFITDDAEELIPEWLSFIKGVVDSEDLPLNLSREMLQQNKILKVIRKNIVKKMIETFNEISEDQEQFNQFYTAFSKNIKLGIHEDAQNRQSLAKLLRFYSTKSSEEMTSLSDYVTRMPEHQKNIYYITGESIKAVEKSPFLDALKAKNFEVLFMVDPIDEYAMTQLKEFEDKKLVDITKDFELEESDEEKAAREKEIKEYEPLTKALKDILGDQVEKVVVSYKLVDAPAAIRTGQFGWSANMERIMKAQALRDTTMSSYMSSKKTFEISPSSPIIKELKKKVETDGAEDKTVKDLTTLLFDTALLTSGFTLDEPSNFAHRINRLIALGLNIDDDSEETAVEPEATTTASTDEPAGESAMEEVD
# [9] = target: T3, Short transient receptor potential channel 4 (Mus musculus, UniProt Q9QUQ5); assay: mouse TRPC4 channel inhibitors, dose response, cell-based, HEK293 TRPC4/mu-opioid, Fluo-4 calcium (AID 434942); type: functional;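 note: potency of inhibitors blocking the TRPC4 calcium response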
# T3 sequence (Q9QUQ5 whole entry): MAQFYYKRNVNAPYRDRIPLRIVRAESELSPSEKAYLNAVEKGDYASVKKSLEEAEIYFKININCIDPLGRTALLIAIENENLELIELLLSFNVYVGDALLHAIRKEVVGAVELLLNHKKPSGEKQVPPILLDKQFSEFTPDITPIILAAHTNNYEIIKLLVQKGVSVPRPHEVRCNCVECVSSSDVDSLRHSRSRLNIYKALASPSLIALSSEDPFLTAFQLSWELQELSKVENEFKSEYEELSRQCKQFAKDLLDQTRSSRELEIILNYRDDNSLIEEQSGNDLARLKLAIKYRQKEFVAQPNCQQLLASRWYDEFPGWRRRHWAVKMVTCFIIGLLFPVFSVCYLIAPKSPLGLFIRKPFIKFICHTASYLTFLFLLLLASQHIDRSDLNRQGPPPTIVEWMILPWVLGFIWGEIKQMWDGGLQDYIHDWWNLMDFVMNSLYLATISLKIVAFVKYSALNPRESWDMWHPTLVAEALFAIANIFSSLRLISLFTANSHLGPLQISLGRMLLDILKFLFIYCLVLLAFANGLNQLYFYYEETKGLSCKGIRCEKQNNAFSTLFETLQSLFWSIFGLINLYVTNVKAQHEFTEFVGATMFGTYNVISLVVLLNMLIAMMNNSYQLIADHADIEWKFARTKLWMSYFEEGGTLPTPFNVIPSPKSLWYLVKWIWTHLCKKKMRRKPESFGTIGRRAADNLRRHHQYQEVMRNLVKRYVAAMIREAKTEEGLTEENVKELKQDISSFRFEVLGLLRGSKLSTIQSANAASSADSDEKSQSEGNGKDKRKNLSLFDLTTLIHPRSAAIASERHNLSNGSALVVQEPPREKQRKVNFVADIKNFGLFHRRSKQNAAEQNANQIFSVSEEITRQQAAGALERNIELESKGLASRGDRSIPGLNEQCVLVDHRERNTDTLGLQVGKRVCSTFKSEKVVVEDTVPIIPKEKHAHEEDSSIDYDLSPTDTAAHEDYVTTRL
# [10] = target: T3, Short transient receptor potential channel 4; assay: mouse TRPC4 channel activators, dose response, cell-based, HEK293 TRPC4/mu-opioid, Fluo-4 calcium (AID 434937); type: functional
# [11] = inhibitors of clade B AD8 Env fusion, dose response, cell-based, cherry-pick (AID 652062); type: functional;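 note: luciferase signal from cell-cell fusion driven by HIV-1 clade B AD8 Env; potency is for inhibitors of fusion seen as a drop in luminescence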
# [12] = inhibitors of HIV Env-driven cell fusion, dose response, cherry-pick (AID 652057); type: functional, cell-based
# [13] = off-target signal loss in HeLa-CEM21 co-culture – HeLa F-luc CTL cells, cherry-picked, counter-screen for HIV-1 Env fusion inhibitor project, dose response (AID 652040); type: functional, cell-based;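 note: potency for signal decrease marking cytotoxic or nonspecific inhibition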
# [14] = system: Vero; assay: cells; type: functional; settings: Chlorocebus sabaeus
# [15] = target: T4, Replicative DNA helicase DnaB (Mycobacterium tuberculosis, UniProt P9WMR3); assay: DnaB intein splicing inhibitors, dose response, biochemical, cell-free fluorescence (AID 449749); type: functional
# T4 sequence (P9WMR3 whole entry): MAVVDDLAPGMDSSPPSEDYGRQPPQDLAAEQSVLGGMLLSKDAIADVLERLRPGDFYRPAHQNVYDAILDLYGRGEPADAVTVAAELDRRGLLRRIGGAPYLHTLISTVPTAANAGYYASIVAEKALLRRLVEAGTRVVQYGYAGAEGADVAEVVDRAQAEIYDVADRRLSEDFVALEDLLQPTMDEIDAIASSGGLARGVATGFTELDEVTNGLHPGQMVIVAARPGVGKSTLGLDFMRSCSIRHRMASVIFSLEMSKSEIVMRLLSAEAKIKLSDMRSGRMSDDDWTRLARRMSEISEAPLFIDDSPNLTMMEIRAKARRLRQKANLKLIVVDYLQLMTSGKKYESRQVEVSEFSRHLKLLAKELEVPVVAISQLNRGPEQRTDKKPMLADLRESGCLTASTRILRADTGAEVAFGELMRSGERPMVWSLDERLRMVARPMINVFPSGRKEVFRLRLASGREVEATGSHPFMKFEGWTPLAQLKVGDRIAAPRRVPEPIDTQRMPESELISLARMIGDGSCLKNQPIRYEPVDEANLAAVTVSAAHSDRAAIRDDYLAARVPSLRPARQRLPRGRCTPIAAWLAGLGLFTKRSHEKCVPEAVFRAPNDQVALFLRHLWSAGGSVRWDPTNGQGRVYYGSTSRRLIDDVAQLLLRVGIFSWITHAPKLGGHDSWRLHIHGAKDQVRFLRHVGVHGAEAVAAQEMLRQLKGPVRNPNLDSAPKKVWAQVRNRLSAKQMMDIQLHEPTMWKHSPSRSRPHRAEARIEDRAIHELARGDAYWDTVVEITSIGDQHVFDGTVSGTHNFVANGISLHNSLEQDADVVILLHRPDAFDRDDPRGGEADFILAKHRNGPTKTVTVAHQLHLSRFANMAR
# [16] = cells; type: functional, cell-based
# [17] = Luminescence Cell-Based Dose Retest to Confirm Inhibitors of Cancer Stem Cells. [Related pubchem assays (depositor defined):AID2717, AID2721]; type: functional; settings: Homo sapiens
# [18] = cells; type: functional, cell-based; remark: listed apart in the source
# [19] = target: T5, Protein RecA (Mycobacterium tuberculosis, UniProt P9WHJ3); assay: Fluorescence Cell-Free Homogeneous Dose Retest to Identify Inhibitors of RecA-Intein Splicing Activity. [Related pubchem assays (depositor defined):AID2097, AID2223, AID489010, AID492950]; type: functional
# T5 sequence (P9WHJ3 whole entry): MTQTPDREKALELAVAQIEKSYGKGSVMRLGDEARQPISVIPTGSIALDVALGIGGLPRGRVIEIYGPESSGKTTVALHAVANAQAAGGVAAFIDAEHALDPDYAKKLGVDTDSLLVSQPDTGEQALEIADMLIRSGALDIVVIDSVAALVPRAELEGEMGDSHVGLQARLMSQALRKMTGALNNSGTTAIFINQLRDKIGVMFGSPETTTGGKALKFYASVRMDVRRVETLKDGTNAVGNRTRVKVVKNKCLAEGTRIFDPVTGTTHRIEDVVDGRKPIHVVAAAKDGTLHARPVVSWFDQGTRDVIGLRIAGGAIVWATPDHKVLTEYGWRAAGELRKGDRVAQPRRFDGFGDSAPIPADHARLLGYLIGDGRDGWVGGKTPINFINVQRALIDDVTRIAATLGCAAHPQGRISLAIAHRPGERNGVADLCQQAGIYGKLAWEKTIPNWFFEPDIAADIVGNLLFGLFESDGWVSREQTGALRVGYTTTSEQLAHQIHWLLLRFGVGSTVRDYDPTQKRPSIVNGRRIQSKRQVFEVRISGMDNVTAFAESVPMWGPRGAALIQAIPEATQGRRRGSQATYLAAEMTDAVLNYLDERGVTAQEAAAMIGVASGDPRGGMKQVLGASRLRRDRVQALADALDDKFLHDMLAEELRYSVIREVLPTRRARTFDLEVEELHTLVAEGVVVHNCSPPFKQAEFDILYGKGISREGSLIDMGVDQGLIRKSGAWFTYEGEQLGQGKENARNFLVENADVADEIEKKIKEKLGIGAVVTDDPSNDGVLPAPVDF
# [20] = THP-1 cell cytotoxicity, dose response, cytotoxicity control for non-replicating M. tuberculosis project (AID 489025); type: functional
# [21] = inhibitors of intracellular T. cruzi replication, confirmation, NIH3T3 host cells, beta-gal luminescence (AID 2044); type: functional, cell-based;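 note: intracellular parasites grown in NIH/3T3 mouse fibroblasts as host cells; luminescent beta-galactosidase reporter signal from transgenic T. cruzi replicating inside host cells; inhibitors lower the luminescence signal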
# [22] = cells; type: functional
# [23] = cytotoxicity toward NIH3T3 fibroblasts, dose response, counter-screen, cell-based, ATP luminescence, mouse fibroblasts (AID 2010); type: functional;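 note: cells exposed to compound for about 90 hours before reading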
# Mu-type opioid receptor, sequence (P35372 whole entry): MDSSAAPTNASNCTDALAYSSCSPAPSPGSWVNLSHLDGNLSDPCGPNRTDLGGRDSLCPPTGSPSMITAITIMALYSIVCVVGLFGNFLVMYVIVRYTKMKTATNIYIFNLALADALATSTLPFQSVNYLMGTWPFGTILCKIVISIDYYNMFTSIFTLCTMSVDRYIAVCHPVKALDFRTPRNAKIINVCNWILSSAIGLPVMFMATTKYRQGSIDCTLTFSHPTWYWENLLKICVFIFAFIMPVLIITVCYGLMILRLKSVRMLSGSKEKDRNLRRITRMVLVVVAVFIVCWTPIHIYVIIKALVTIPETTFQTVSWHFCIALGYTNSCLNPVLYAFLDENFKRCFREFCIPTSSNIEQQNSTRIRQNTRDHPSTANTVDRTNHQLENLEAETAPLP
structure (smiles),measurement,setting,value
c1ccc(C2(N3CCCCC3)CCCCC2)cc1 [PHENCYCLIDINE HYDROCHLORIDE],EC50,[1],6.29 µM (active)
same,EC50,[2],> 92.5 µM (inactive)
same,EC50,[3],33.6 µM (inactive)
CC(=O)Nc1ccc(S(=O)(=O)NCCC(=O)OCC(=O)N2CCN(C(=O)c3ccco3)CC2)cc1,IC50,[4],10.3 µM (active)
Cc1ccc(C(=O)Nc2cccc(-c3cn4ccccc4n3)c2)cc1,EC50,[5],> 180 µM (inactive)
same,EC50,[6],0.628 µM (active)
same,EC50,[7],> 150 µM (inactive)
same,EC50,[8],> 160 µM (inactive)
CN(C)C(CNC(=O)c1ccc(C(F)(F)F)cc1)c1ccco1 (stereo not given),EC50,[1],> 92.4 µM (inactive)
same,EC50,[2],> 92.4 µM (inactive)
same,EC50,[9],0.0533 µM (active)
same,EC50,[3],91 µM (inactive)
same,EC50,[10],0.267 µM (active)
Cc1ccccc1[N+]1=C2SCCN2C(O)(c2ccccc2)C1 (stereo not given),EC50,[1],18.7 µM (inactive)
same,EC50,[2],> 92.5 µM (inactive)
same,EC50,[3],> 92.5 µM (inactive)
same,EC50,[10],0.335 µM (active)
CSc1cccc(N2CC(C(=O)Nc3cccc(S(=O)(=O)N4CCCC4)c3)CC2=O)c1 (stereo not given),AC50,[11],11.7 µM (active)
same,IC50,[4],6.81 µM (active)
same,AC50,[12],17.8 µM (active)
same,AC50,[13],> 70 µM (inactive)
COc1cccc(/C=C2/SC(=S)N(CCC(=O)N3CCOCC3)C2=O)c1,CC50,[14],20.1 µM (active)
Cc1ccc(-c2nnc(Sc3nc4ccccc4o3)c3ccccc23)cc1,AC50,[15],2.39 µM (active)
same,EC50,[16],> 350 µM (not active)
same,AC50,[17],6.09 µM (active)
same,CC50,[14],> 25 µM (active)
same,EC50,[18],> 350 µM (not active)
same,EC50,[19],0.396 µM (active)
O=c1c2ccc(Cl)cc2[nH]c(=S)n1Cc1cccnc1,EC50,[1],65.6 µM (inactive)
same,EC50,[2],> 92.5 µM (inactive)
same,EC50,[3],43.2 µM (inactive)
COc1ccc(C(=O)N/N=C/c2ccc(OC(=O)c3cccc4ccccc34)c([N+](=O)[O-])c2)cc1,IC50,[4],2.4 µM (active)
O=C(O)c1cc(-c2ccc(/C=C3\NC(=O)N(c4ccccc4)C3=O)o2)ccc1Cl,IC50,[4],5.09 µM (active)
C/C(=N/Nc1ccnc2cc(Cl)ccc12)c1ccc(N)cc1,CC50,[20],23.4 µM (active)
same,EC50,[1],54.7 µM (inactive)
same,EC50,[21],3.31 µM (active)
same,IC50,[22],29 µM (active)
same,EC50,[23],> 60 µM (not active)
same,EC50,[2],> 92.4 µM (inactive)
same,EC50,[3],29.5 µM (inactive)

# From ChEMBL document CHEMBL1201862, “PubChem BioAssay data set” (2004)
